Results on three molecules are retold here after patent publication US20230263782A1, “ORAL FORMULATIONS AND USES THEREOF” (INVENTISBIO CO., LTD., priority 2020, published 2023).

In brackets after ≈: the same amount, converted by molar mass. Where a name gives a salt, the structure may show the parent alone. Read-outs that look alike come from different tables or passages of the source.

One data set concerns ER+ breast cancer cells. The conditions noted are these: as discussed in WO2017/136688; cited from earlier work.
Data set [1] in a line: Solubility test in pH 1.2 or pH 6.8 buffer (saturated solutions, HPLC; remaining solids by XRPD). The format is physicochemical. The conditions noted are these: for Stability in buffer solution (HPLC): pH 1.2 buffer solution; for solubility at 30 min / Solubility at 24 h: room temperature; for XRPD patterns at 24 h: remaining solid. As to the method: For solubility test: About 20 mg of Compound FA, L-lysine salt and meglumine salt (Form I) were weighed into vials, added 3 mL of pH1.2 or pH 6.8 buffer to make saturated solutions. All suspensions were kept shaking with 200 rpm at room temperature for up to 24 hours. […] At 24 hours, remaining solids were collected and determined by XRPD.

Data set [2] is described as follows: Solid stability test at 40° C./75% RH for 8 days (HPLC, XRPD). The format is physicochemical. The conditions noted are these: for Solid stability: 40° C./75% RH for 8 days, HPLC and XRPD; for Purity at 8 days / Purity at 0 day: HPLC; for Purity at 8 days: after 40° C./75% RH for 8 days; for Purity at 0 day: start of 40° C./75% RH storage. As to the method: HPLC ANALYSIS: a representative HPLC method is shown below, which can be used, for example, to analyze the purity, solubility, and stability of the salts herein.
For stability test: About 20 mg of Compound FA, L-lysine salt and meglumine salt (Form I) were weighed into vials, and put at the condition of 40° C./75% RH for 8 days. At 0 and 8 days, the solid sample was dissolved using acetonitrile/water (1/1) to make a solution with the concentration of 0.2 mg/mL. Sample solutions were analyzed by HPLC and solid samples were examined by XRPD.

Data set [3] can be described thus: Dynamic moisture sorption analysis (DVS), XRPD before and after. Format: physicochemical. Particulars: FIG. 5A. The procedure:
Dynamic moisture sorption analysis (DVS): DVS was determined using IGAsorp (Hiden Isochema, UK). The sample was tested at a targeted RH (relative humidity) of 10 to 90% full cycle in step mode. The analysis was performed in 10% RH increments.

Data set [4] in a line: Solubility in water (statement). The format is physicochemical.
For data set [5] the following is noted: compared with fulvestrant, GDC-0810 and AZD9496; WO2017/136688; cited from earlier work.
A short description of data set [6]: Physical treatment (grinding) of Form I. Format: physicochemical. The conditions noted are these: grinded for 2 min and 5 min. As to the method:
Physical treatment of Form I: Form I of meglumine salt was grinded for 2 min and 5 min. After grinding, the crystallinity declined, but the crystal form was still Form I.

The nature of data set [7]: Solid stability test of Form I at 25° C./92.5% RH for 10 days (XRPD). The format is physicochemical. As to the method: Solid stability test of Form I at 92.5% RH for 10 days: About 20 mg of meglumine salt Form I was put into the condition of 25° C./92.5% RH for 10 days. At 10 days, the sample was analyzed by XRPD.
Data set [8] in a line: Meglumine salt form interconversion study (slurry in IPA or water, XRPD). The format is physicochemical. Particulars: Water. As to the method: Interconversion study: Interconversion studies were carried out by mixing the same amount of different form solids in IPA or water, respectively. Suspensions were kept stirring at room temperature and 60° C. for several days, during which suspensions were filtrated and analyzed by XRPD.

In the next data set the target is T1, ER (Homo sapiens, UniProt P03372).
T1 sequence (P03372 1-595): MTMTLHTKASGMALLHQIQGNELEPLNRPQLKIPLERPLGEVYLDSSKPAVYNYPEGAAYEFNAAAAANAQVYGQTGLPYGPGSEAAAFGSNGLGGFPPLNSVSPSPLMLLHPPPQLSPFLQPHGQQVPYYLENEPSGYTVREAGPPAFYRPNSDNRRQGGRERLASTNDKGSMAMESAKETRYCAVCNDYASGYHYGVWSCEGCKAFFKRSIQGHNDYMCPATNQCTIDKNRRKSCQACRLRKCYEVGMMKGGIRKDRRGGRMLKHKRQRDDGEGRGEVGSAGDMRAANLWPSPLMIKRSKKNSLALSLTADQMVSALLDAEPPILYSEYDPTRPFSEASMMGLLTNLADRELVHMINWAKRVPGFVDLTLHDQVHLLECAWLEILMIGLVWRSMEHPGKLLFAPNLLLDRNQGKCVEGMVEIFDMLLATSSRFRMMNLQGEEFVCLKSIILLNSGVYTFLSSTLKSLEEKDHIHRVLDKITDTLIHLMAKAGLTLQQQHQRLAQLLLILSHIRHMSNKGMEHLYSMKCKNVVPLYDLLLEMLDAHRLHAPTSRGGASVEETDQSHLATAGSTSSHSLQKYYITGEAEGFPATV
The conditions noted are these: clinical samples, intramuscular injection monthly; cited from earlier work.

[9] abbreviates: pH 1.2 buffer, calculated with the sum of impurities and major peak area.

The solubility is the dissolved amount per volume that the medium holds. Broadly, the Solubility is how much of the substance goes into solution per volume. In the case of `C[C@@H]1Cc2c([nH]c3ccccc23)[C@@H](c2c(Cl)cc(/C=C/C(=O)O)cc2Cl)N1CC(C)(C)F` [Compound FA, (E)-3-(3,5-dichloro-4-((1R,3R)-2-(2-fluoro-2-methylpropyl)-3-methyl-2,3,4,9-tetrahydro-1H-pyrido[3,4-b]indol-1-yl)phenyl)acrylic acid], the “growth of ER+ breast cancer cells” value with ER+ breast cancer cells was “inhibited the growth of ER+ breast cancer cells”. Also, in [1], the “Stability in buffer solution (HPLC)” value is “unstable”. Also, in data set [1] (pH 1.2 buffer, pH 1.2, simulated gastric fluid, thermodynamic from solid, pH 1.2 buffer, calculated with the sum of impurities and major peak area, read-out: Solubility at 30 min), the solubility at 30 min is 571 µg/mL (≈ 1200 µM). Also, the “Solubility at 24 h” value in data set [1] (setting [9]) was 267 µg/mL (≈ 562 µM). Further, in [1] (pH 6.8 buffer), the “Solubility at 24 h” value came out at 3 µg/mL (≈ 6.31 µM), the “solubility at 30 min” value turned out to be 14 µg/mL (≈ 29.4 µM) and the “XRPD patterns at 24 h” value is “Low crystallinity”. Besides, the “XRPD patterns at 24 h” value in [1] (pH 1.2 buffer) is given as “Low crystallinity”. In data set [2], the Solid stability entry is “physically and chemically stable”; the “Purity at 8 days” value is 96.31 Area %; the “Purity at 0 day” value came out at 98.02 Area %. Moreover, the “Solid form before and after DVS studies (XRPD)” value in [3] was “did not change”. The Solubility in water entry in [4] was “practically insoluble in water”. The human hepatocyte clearance entry in data set [5] is listed as “better human hepatocyte clearance”.
For `C[C@@H]1Cc2c([nH]c3ccccc23)[C@@H](c2c(Cl)cc(/C=C/C(=O)O)cc2Cl)N1CC(C)(C)F` [Meglumine salt, meglumine (E)-3-(3,5-dichloro-4-((1R,3R)-2-(2-fluoro-2-methylpropyl)-3-methyl-2,3,4,9-tetrahydro-1H-pyrido[3,4-b]indol-1-yl)phenyl acrylate], the “Crystal form after grinding” value in data set [6] is “still Form I”. Also, the “Stability in buffer solution (HPLC)” value in [1] is “unstable”. In addition, the “Solubility at 24 h” value in data set [1] (setting [9]) was 1612 µg/mL; in data set [1] (pH 6.8 buffer), 17 µg/mL. The “solubility at 30 min” value is 296 µg/mL in data set [1] (setting [9]) and 20 µg/mL in [1] (pH 6.8 buffer, pH 6.8, aqueous buffer, thermodynamic from solid, pH 6.8 buffer, read-out: Solubility at 30 min). In addition, the “XRPD patterns at 24 h” value in [1] (pH 1.2 buffer) is listed as “No change”; in [1] (pH 6.8 buffer), “Low crystallinity”. Moreover, the “Crystal form after storage (XRPD)” value in [7] is listed as “remained unchanged”. In addition, in data set [2], the Solid stability entry was “physically and chemically stable”. Moreover, the “Purity at 8 days” value in [2] is recorded as 99.66 Area %. Further, the “Purity at 0 day” value in [2] is 99.68 Area %. Moreover, the Final crystal form entry in data set [8] (25° C.) is “Dihydrate”; in data set [8] (60° C.) it was “Form I”.
For the molecule `C[C@]12CC[C@@H]3c4ccc(O)cc4C[C@@H](CCCCCCCCC[S+]([O-])CCCC(F)(F)C(F)(F)F)[C@H]3[C@@H]1CC[C@@H]2O` (some centres unmarked) [fulvestrant], the ER degradation on ER is reported as approximately 50%.
